≈ marks a conversion by molar mass, not a printed value.
Key:
Type in all cases: functional
Pseudomonas aeruginosa = assay: Antimicrobial activity against Pseudomonas aeruginosa MTCC 2488 by broth microdilution method
Escherichia coli = assay: Antimicrobial activity against Escherichia coli MTCC 442 by broth microdilution method
Aspergillus niger = assay: Antimicrobial activity against Aspergillus niger MTCC 282
Candida albicans = assay: Antimicrobial activity against Candida albicans MTCC 227
Streptococcus pyogenes = assay: Antimicrobial activity against Streptococcus pyogenes MTCC 443 by broth microdilution method
Staphylococcus aureus = assay: Antimicrobial activity against Staphylococcus aureus MTCC 96 by broth microdilution method
Aspergillus clavatus = assay: Antimicrobial activity against Aspergillus clavatus MTCC 1323
[1] = tested on: Mycobacterium tuberculosis; assay: Antimicrobial activity against Mycobacterium tuberculosis H37Rv

SMILES | MIC (Pseudomonas aeruginosa) | MIC (Escherichia coli) | MIC (Aspergillus niger) | MIC (Candida albicans) | MIC (Streptococcus pyogenes) | MIC (Staphylococcus aureus) | MIC (Aspergillus clavatus) | inhibition (INH) [1] | MIC ([1]; Mycobacterium tuberculosis, H37Rv)
COc1ccc(-c2cc(N3CCCC3)n(-c3cccc(Cl)c3)c(=O)c2/N=N/c2cccc([N+](=O)[O-])c2)cc1 | 200 µg/mL (≈ 377 µM) | 200 µg/mL (≈ 377 µM) | 500 µg/mL (≈ 943 µM) | 500 µg/mL (≈ 943 µM) | 250 µg/mL (≈ 472 µM) | 250 µg/mL (≈ 472 µM) | 500 µg/mL (≈ 943 µM) | – | –
COc1ccc(-c2cc(=O)n(-c3cccc(Cl)c3)c(N3CCCC3)c2/N=N/c2ccccc2Cl)cc1 | 100 µg/mL (≈ 193 µM) | 250 µg/mL (≈ 481 µM) | 500 µg/mL (≈ 963 µM) | 250 µg/mL (≈ 481 µM) | 250 µg/mL (≈ 481 µM) | 250 µg/mL (≈ 481 µM) | 250 µg/mL (≈ 481 µM) | – | –
COc1ccc(-c2cc(N3CCCC3)n(-c3cccc(Cl)c3)c(=O)c2/N=N/c2ccc(Cl)cc2)cc1 | 500 µg/mL (≈ 963 µM) | 500 µg/mL (≈ 963 µM) | 1000 µg/mL (≈ 1930 µM) | 1000 µg/mL (≈ 1930 µM) | 500 µg/mL (≈ 963 µM) | 500 µg/mL (≈ 963 µM) | 1000 µg/mL (≈ 1930 µM) | – | –
COc1ccc(-c2cc(=O)n(-c3cccc(Cl)c3)c(N3CCCC3)c2/N=N/c2ccccc2C)cc1 | 500 µg/mL (≈ 1000 µM) | 200 µg/mL (≈ 401 µM) | 1000 µg/mL (≈ 2000 µM) | 250 µg/mL (≈ 501 µM) | 500 µg/mL (≈ 1000 µM) | 500 µg/mL (≈ 1000 µM) | 1000 µg/mL (≈ 2000 µM) | – | –
COc1ccc(-c2cc(=O)n(-c3cccc(Cl)c3)c(N3CCCC3)c2/N=N/c2ccc(Cl)cc2[N+](=O)[O-])cc1 | 500 µg/mL (≈ 886 µM) | 250 µg/mL (≈ 443 µM) | 200 µg/mL (≈ 354 µM) | 250 µg/mL (≈ 443 µM) | 250 µg/mL (≈ 443 µM) | 250 µg/mL (≈ 443 µM) | 200 µg/mL (≈ 354 µM) | 98% | 500 µg/mL (≈ 886 µM)
COc1ccc(-c2cc(N3CCCC3)n(-c3cccc(Cl)c3)c(=O)c2/N=N/c2c(Cl)cc([N+](=O)[O-])cc2Cl)cc1 | 250 µg/mL (≈ 417 µM) | 250 µg/mL (≈ 417 µM) | 1000 µg/mL (≈ 1670 µM) | 250 µg/mL (≈ 417 µM) | 200 µg/mL (≈ 334 µM) | 200 µg/mL (≈ 334 µM) | 1000 µg/mL (≈ 1670 µM) | – | –
COc1ccc(-c2cc(=O)n(-c3cccc(Cl)c3)c(N3CCCC3)c2/N=N/c2cccc(Cl)c2)cc1 | 500 µg/mL (≈ 963 µM) | 500 µg/mL (≈ 963 µM) | 500 µg/mL (≈ 963 µM) | 250 µg/mL (≈ 481 µM) | 100 µg/mL (≈ 193 µM) | 100 µg/mL (≈ 193 µM) | 500 µg/mL (≈ 963 µM) | – | –
COc1ccc(-c2cc(N3CCCC3)n(-c3cccc(Cl)c3)c(=O)c2CN2CCCC2)cc1 | 500 µg/mL (≈ 1080 µM) | 250 µg/mL (≈ 539 µM) | 500 µg/mL (≈ 1080 µM) | 500 µg/mL (≈ 1080 µM) | 500 µg/mL (≈ 1080 µM) | 500 µg/mL (≈ 1080 µM) | 1000 µg/mL (≈ 2160 µM) | – | –
COc1ccc(-c2cc(N3CCCC3)n(-c3cccc(Cl)c3)c(=O)c2/N=N/c2ccc([N+](=O)[O-])cc2)cc1 | 250 µg/mL (≈ 472 µM) | 250 µg/mL (≈ 472 µM) | > 1000 µg/mL | 250 µg/mL (≈ 472 µM) | 250 µg/mL (≈ 472 µM) | 250 µg/mL (≈ 472 µM) | > 1000 µg/mL | – | –
COc1ccc(-c2cc(N3CCCC3)n(-c3cccc(Cl)c3)c(=O)c2/N=N/c2ccccc2C)cc1 | 500 µg/mL (≈ 1000 µM) | 200 µg/mL (≈ 401 µM) | 1000 µg/mL (≈ 2000 µM) | 1000 µg/mL (≈ 2000 µM) | 500 µg/mL (≈ 1000 µM) | 500 µg/mL (≈ 1000 µM) | 1000 µg/mL (≈ 2000 µM) | – | –
COc1ccc(-c2cc(Cl)n(-c3cccc(Cl)c3)c(=O)c2)cc1 | 100 µg/mL (≈ 289 µM) | 100 µg/mL (≈ 289 µM) | 500 µg/mL (≈ 1440 µM) | 500 µg/mL (≈ 1440 µM) | 200 µg/mL (≈ 578 µM) | 200 µg/mL (≈ 578 µM) | 500 µg/mL (≈ 1440 µM) | – | –
CC1(C)S[C@@H]2[C@H](NC(=O)[C@H](N)c3ccccc3)C(=O)N2[C@H]1C(=O)O [AMPICILLIN] | 100 µg/mL (≈ 286 µM) | 100 µg/mL (≈ 286 µM) | – | – | 100 µg/mL (≈ 286 µM) | 250 µg/mL (≈ 715 µM) | – | – | –
COc1ccc(-c2cc(=O)n(-c3cccc(Cl)c3)c(N3CCCC3)c2/N=N/c2ccccc2[N+](=O)[O-])cc1 | 200 µg/mL (≈ 377 µM) | 200 µg/mL (≈ 377 µM) | 500 µg/mL (≈ 943 µM) | 250 µg/mL (≈ 472 µM) | 100 µg/mL (≈ 189 µM) | 100 µg/mL (≈ 189 µM) | 250 µg/mL (≈ 472 µM) | – | –
COc1ccc(-c2cc(N3CCCC3)n(-c3cccc(Cl)c3)c(=O)c2/N=N/c2cccc(Cl)c2)cc1 | 500 µg/mL (≈ 963 µM) | 500 µg/mL (≈ 963 µM) | 500 µg/mL (≈ 963 µM) | 250 µg/mL (≈ 481 µM) | 100 µg/mL (≈ 193 µM) | 100 µg/mL (≈ 193 µM) | 500 µg/mL (≈ 963 µM) | – | –
COc1ccc(-c2cc(N3CCCC3)n(-c3cccc(Cl)c3)c(=O)c2/N=N/c2ccccc2Cl)cc1 | 100 µg/mL (≈ 193 µM) | 100 µg/mL (≈ 193 µM) | 250 µg/mL (≈ 481 µM) | 500 µg/mL (≈ 963 µM) | 250 µg/mL (≈ 481 µM) | 250 µg/mL (≈ 481 µM) | 250 µg/mL (≈ 481 µM) | – | –
COc1ccc(-c2cc(=O)n(-c3cccc(Cl)c3)c(N3CCCC3)c2/N=N/c2cccc(C)c2)cc1 | 250 µg/mL (≈ 501 µM) | 250 µg/mL (≈ 501 µM) | 500 µg/mL (≈ 1000 µM) | 500 µg/mL (≈ 1000 µM) | 200 µg/mL (≈ 401 µM) | 250 µg/mL (≈ 501 µM) | 500 µg/mL (≈ 1000 µM) | – | –
COc1ccc(-c2cc(=O)n(-c3cccc(Cl)c3)c(N3CCCC3)c2/N=N/c2ccc(C)cc2)cc1 | 250 µg/mL (≈ 501 µM) | 200 µg/mL (≈ 401 µM) | 250 µg/mL (≈ 501 µM) | 250 µg/mL (≈ 501 µM) | 200 µg/mL (≈ 401 µM) | 200 µg/mL (≈ 401 µM) | 500 µg/mL (≈ 1000 µM) | – | –
COc1ccc(-c2cc(N3CCCC3)n(-c3cccc(Cl)c3)c(=O)c2/N=N/c2cc(Cl)ccc2Cl)cc1 | 500 µg/mL (≈ 903 µM) | 250 µg/mL (≈ 451 µM) | > 1000 µg/mL | 1000 µg/mL (≈ 1810 µM) | 500 µg/mL (≈ 903 µM) | 500 µg/mL (≈ 903 µM) | > 1000 µg/mL | – | –
